Data on one molecule can be found in publication PMC9861386, “N-Heterocyclic Carbene-Iridium Complexes as Photosensitizers for In Vitro Photodynamic Therapy to Trigger Non-Apoptotic Cell Death in Cancer Cells” (Molecules, 2023).

In one test the test system is NIH-3T3 fibroblasts. The experiment in a line: MTT cell viability, 72 h, dark or 458 nm irradiation. It counts as cell-based, murine. To be noted: for GI50: 72 h, MTT. The method, then:
(§1) For all biology experiments, the compounds were solubilized in DMSO to reach a final fixed concentration equal to 0.1% v/v to avoid cytotoxicity caused by DMSO [89]. The results are normalized to controls (0.1% v/v DMSO). Depending on the cell type, approximatively 1000 to 10,000 cells/cm^2 were seeded in 48-well plates for MTT, ATP and GSH assays and 60 mm Petri dishes for Western blots. Cells were allowed to attach overnight and then incubated for 4 h with the different complexes (in the dark), then irradiated for 10 min, followed by an incubation in the dark up to 72 h.
(§2) Irradiation was conducted using an in-house device: a series of blue light LEDs selected according to the absorption spectra of the compounds at a 458 nm wavelength with an emitted power of 9.6 watts. The absorbed energy, or irradiance, was measured at 458 nm with a Thorlabs Optical Power Meter PM100A at 5 and 10 cm distance between the cell layer and the light source and expressed as mW/cm^2.
(§3) A tetrazolium-based MTT reagent (3-(4,5-dimethylthiazol-2-yl)-2,5-diphenyltetrazolium bromide) was used to determine cell viability, as previously described. After 72 h of treatment at 37 °C and 5% CO2, cells were incubated with 25 μL MTT solution (5 mg/mL; Sigma-Aldrich) for 4 h. After solubilization with 500 μL of lysis buffer (DMSO), formazan was quantified by spectrophotometry with a microplate reader at 570 nm absorbance (ClarioSTAR, BMG LabTech, Champigny-sur-Marne, France). GI50 values corresponding to the concentration that caused 50% inhibition of cell proliferation were calculated from dose–response curves obtained by nonlinear regression analysis. All results were calculated from data obtained in at least three independent experiments.

Test [1] has as its system PC-3 prostate cancer cells. The test is described as above. The conditions noted are these: for GI50: 72 h, MTT. It counts as cell-based, human. The procedure: as §1, §2, §3
Another test has as its system T24 bladder cancer cells. The description is as above. To be noted: for GI50: 72 h, MTT. It counts as cell-based, human. The procedure:
as §1, §2, §3

The subject of the next test is PC-3. The test is described as follows: MTT cytotoxicity, 48 h. Type of test: cell-based, human. The procedure:
(§4) The in vitro cytotoxicity of iridium(III) complexes 4a–4g was first evaluated against cancer cell lines PC-3 (human prostate) and T24 (human bladder) and the non-cancerous NIH-3T3 cell line (murine fibroblasts) using colorimetric MTT tests after 48 h of treatment. The dimeric iridium precursor [IrCl(ppy)2]2 was used as reference and the results are summarized in Table S1 (Supplementary Materials) in the supporting information file. […] The complexes were also evaluated for their cytotoxicity towards healthy NIH-3T3 cells, giving access to the selectivity index (SI). […] No linear correlation between lipophilicity and anti-cancer activity was found for the iridium(III) complexes 4a–4g. For the following biological studies, we focused on the C1 series.
(§5) Table S1. Cytotoxic activity of iridium(III) NHC complexes 4a−4g expressed as GI50 (μM) values towards selected cancer and normal cell lines as determined by MTT assay (48 h).a Complex PC-3 T24 NIH3T3 SI (PC-3) SI (T24) […]
(§6) a GI50 values correspond to the concentration of complexes causing 50 % inhibition of cell growth.
(§7) Data were obtained from three independent experiments.
(§8) The cytotoxic effects of the NHC precursors, the imidazolium salts, which represents the potential hydrolysis and/or degradation products of the complexes, have been published before [SI-1, SI-2]. […]

In another test the test system is T24. The experiment in a line: MTT cytotoxicity, 48 h. Type of test: cell-based, human. The method, then: as §4, §5, §6, §7, §8
In another test the test system is NIH3T3. The test is described as follows: MTT cytotoxicity, 48 h. It counts as cell-based, murine. The procedure:
as §4, §5, §6, §7, §8

[2] abbreviates: GI50 non-irradiated / GI50 irradiated.

Like-named read-outs stand apart in the source and are kept apart here.

`c1cc[c]2c(c1)-c1cccc[n+]1[Ir-3]213([Cl+][Ir-3]24([Cl+]1)([c]1ccccc1-c1cccc[n+]12)[c]1ccccc1-c1cccc[n+]14)[c]1ccccc1-c1cccc[n+]13` [[IrCl(ppy)2]2, reference compound]: the concentration for 50% growth inhibition (GI50) with NIH-3T3 fibroblasts (458 nm irradiation 10 min, read-out: GI50 NIH-3T3 Blue) amounted to 14 µM; in the test with NIH-3T3 fibroblasts (dark, read-out: GI50 NIH-3T3 Dark) it was 40 µM; in test [1] (458 nm irradiation 10 min, read-out: GI50 PC-3 Blue) it was 14 µM; in test [1] (dark, read-out: GI50 PC-3 Dark), 29 µM; in the test with T24 bladder cancer cells (458 nm irradiation 10 min, read-out: GI50 T24 Blue), 22 µM; in the test with T24 bladder cancer cells (dark, read-out: GI50 T24 Dark), 26 µM. Moreover, the GI50 was above 20 µM in the test on PC-3 (MTT), 14.8 µM with T24 (MTT) and above 20 µM with NIH3T3. Besides, the “PI NIH-3T3” value with NIH-3T3 fibroblasts (setting [2]) came out at 2.9. The “PI PC-3” value in test [1] (setting [2]) is given as 2.1. Besides, the “SI vs NIH, PC-3 Blue” value in test [1] (blue light, GI50 NIH-3T3 / GI50 PC-3) turned out to be 1.0. Moreover, the “SI vs NIH, PC-3 Dark” value in test [1] (dark, GI50 NIH-3T3 / GI50 PC-3) came to 1.4. In addition, the “PI T24” value in the test on T24 bladder cancer cells (setting [2]) is on record as 1.2. In addition, in the test with T24 bladder cancer cells (blue light, GI50 NIH-3T3 / GI50 T24), the “SI vs NIH, T24 Blue” value was determined as 0.7. Besides, the “SI vs NIH, T24 Dark” value with T24 bladder cancer cells (dark, GI50 NIH-3T3 / GI50 T24) is reported as 1.5. For the same molecule, the “SI (PC-3)” value with PC-3 (NIH3T3 vs PC-3) is listed as above 1. For the same molecule, the “SI (T24)” value in the test with T24 (NIH3T3 vs T24) was above 1.4.

As usually defined, the GI50 is the concentration that inhibits growth by half.
